Measurements: patent publication US10059701B2 (Merck Patent GmbH, priority 2015, dated 2018)

Columns and labels:
[1] = biological target: T1, IRAK1 (Homo sapiens, UniProt P51617); test: IRAK1 enzymatic assay (ADP-Glo luminescence); type: biochemical; settings: purified human recombinant His-TEV-IRAK1 (194-712)
T1 construct: His-TEV-IRAK1 (194-712); His (N); TEV cleavage site (N)
Method: IRAK1 is a human purified recombinant enzyme (His-TEV-IRAK1 (194-712))
In this assay, IRAK1 hydrolyses ATP and autophosphorylates. Measurement of IRAK-1 inhibition is performed in 384-well format based on luminescence assay (ADP-Glo™ Kinase Assay from Promega). Purified human recombinant IRAK1 (0.3 μg/ml) and serial diluted compounds in DMSO (range of concentration from 10 μM to 0.5 nM) or controls (1% DMSO) are incubated for 15 minutes at RT in assay buffer containing 50 mM Hepes pH 7.0, Fatty acid-free BSA 0.1%, Dithiothreitol (DTT) 2 mM, MgCl2 10 mM, EGTA 0.5 mM, Triton X-100 0.01%. The kinase reaction is then initiated by the addition of ATP […] After 2 hours of incubation at RT, the reaction is stopped and the unconsumed ATP depleted by the addition of ADP-Glo™ Reagent according to supplier instructions. After 40 minutes of incubation at RT, the Kinase Detection Reagent is then added to the assay plate according to supplier instructions. After 20 minutes of incubation at RT, the luminescence signal is measured with a luminometer (PerkinElmer Envision or equivalent reader).

[2] = biological target: T2, IRAK4 (Homo sapiens, UniProt Q9NWZ3); test: IRAK4 enzymatic assay (ADP-Glo luminescence); type: biochemical; settings: purified human recombinant His-TEV-IRAK4 (1-460), ATP 2 μM
T2 construct: His-TEV-IRAK4 (1-460); His (N); TEV cleavage site (N)
T2 sequence (Q9NWZ3 1-460): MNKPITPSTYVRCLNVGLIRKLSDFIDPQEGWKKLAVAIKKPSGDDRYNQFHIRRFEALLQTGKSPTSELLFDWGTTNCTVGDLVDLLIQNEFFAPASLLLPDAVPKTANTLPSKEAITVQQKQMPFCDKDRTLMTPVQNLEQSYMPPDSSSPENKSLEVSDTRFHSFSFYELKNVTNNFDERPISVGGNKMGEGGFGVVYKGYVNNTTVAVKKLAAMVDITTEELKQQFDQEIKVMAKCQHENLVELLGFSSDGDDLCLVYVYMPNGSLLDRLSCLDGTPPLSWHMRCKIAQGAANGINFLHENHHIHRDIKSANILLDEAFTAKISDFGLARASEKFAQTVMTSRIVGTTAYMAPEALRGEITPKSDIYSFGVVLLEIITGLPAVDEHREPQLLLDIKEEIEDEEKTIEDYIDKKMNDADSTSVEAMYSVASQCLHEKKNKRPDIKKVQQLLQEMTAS
Method: IRAK4 is a human purified recombinant enzyme (His-TEV-IRAK4 (1-460)).
In this assay, IRAK4 hydrolyses ATP, autophosphorylates and phosphorylates a Serine/Threonine generic peptidic substrate (STK: 61ST1BLC from CisBio International). Measurement of IRAK-4 inhibition is performed in 384-well format based on a luminescence assay (ADP-Glo™ Kinase Assay from Promega). Purified human recombinant IRAK4 (0.3 μg/ml) and serial diluted compounds in DMSO (range of concentration from 10 μM to 0.5 nM) or controls (1% DMSO) are incubated for 15 minutes at RT in assay buffer containing 50 mM Hepes pH 7.0, Fatty acid-free BSA 0.1%, Dithiothreitol (DTT) 2 mM, MgCl2 10 mM, EGTA 0.5 mM, Triton X-100 0.01%, MnCl2 5 mM. The kinase reaction is then initiated by the addition of ATP (2 μM) and the peptidic substrate STK1-biotin peptide (300 nM). After 2 hours of incubation at RT, the reaction is stopped and the unconsumed ATP depleted by the addition of ADP-Glo™ Reagent according to supplier instructions. After 40 minutes of incubation at RT, the Kinase Detection Reagent is then added to the assay plate according to supplier instructions. After 20 minutes of incubation at RT, the luminescence signal is measured with a plate-reading luminometer (PerkinElmer Envision or equivalent reader).

T1 sequence (P51617 194-712): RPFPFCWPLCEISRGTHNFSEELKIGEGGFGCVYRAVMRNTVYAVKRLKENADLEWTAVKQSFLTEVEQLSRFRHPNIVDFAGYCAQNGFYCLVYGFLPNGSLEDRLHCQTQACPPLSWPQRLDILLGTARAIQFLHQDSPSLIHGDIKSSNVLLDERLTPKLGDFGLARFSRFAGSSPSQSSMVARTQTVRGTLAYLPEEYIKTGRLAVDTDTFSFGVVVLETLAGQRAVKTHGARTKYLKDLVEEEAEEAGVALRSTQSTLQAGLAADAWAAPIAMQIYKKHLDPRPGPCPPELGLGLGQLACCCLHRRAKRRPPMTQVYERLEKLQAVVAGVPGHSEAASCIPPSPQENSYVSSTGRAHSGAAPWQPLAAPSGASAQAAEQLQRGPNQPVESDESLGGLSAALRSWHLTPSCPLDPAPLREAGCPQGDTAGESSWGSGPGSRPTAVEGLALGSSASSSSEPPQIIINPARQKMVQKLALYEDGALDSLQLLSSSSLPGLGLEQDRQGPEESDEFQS

| Compound | IC50 [1] | IC50 [2] |
| --- | --- | --- |
| O=C(/N=c1\[nH]c2cc(N3CCOCC3=O)ccc2n1[C@H]1CCCC[C@H]1CO)c1cccc(C(F)(F)F)c1 (racemic) [Compound 116, rac-(E)-N-(1-((1S,2R)-2-(hydroxymethyl)cyclohexyl)-5-(3-oxomorpholino)-1H-benzo[d]imidazol-2(3H)-ylidene)-3-(trifluoromethyl)benzamide] | > 1000 nM | 100 to 1000 nM |
| O=C(/N=c1\[nH]c2cc(N3CCOCC3=O)ccc2n1[C@H]1CCCC[C@H]1CO)c1cccc(C(F)F)c1 (racemic) [Compound 117, rac-(E)-3-(difluoromethyl)-N-(1-((1S,2R)-2-(hydroxymethyl)cyclohexyl)-5-(3-oxomorpholino)-1H-benzo[d]imidazol-2(3H)-ylidene)benzamide] | 100 to 1000 nM | 100 to 1000 nM |
| O=C(/N=c1\[nH]c2cc(N3CCOCC3=O)ccc2n1[C@H]1CCCC[C@@H]1CO)c1cccc(C(F)(F)F)c1 (racemic) [Compound 118, rac-(E)-N-(1-((1S,2S)-2-(hydroxymethyl)cyclohexyl)-5-(3-oxomorpholino)-1H-benzo[d]imidazol-2(3H)-ylidene)-3-(trifluoromethyl)benzamide] | 100 to 1000 nM | ≤ 100 nM |
| O=C(/N=c1\[nH]c2cc(N3CCOCC3=O)ccc2n1[C@H]1CCCC[C@@H]1CO)c1cccc(C(F)F)c1 (racemic) [Compound 119, rac-(E)-3-(difluoromethyl)-N-(1-((1S,2S)-2-(hydroxymethyl)cyclohexyl)-5-(3-oxomorpholino)-1H-benzo[d]imidazol-2(3H)-ylidene)benzamide] | 100 to 1000 nM | ≤ 100 nM |
| CCC(CCO)n1/c(=N/C(=O)c2cccc(C(F)(F)F)c2)[nH]c2cc(N3CCOCC3=O)ccc21 (racemic) [Compound 124, rac-(E)-N-(1-(1-hydroxypentan-3-yl)-5-(3-oxomorpholino)-1H-benzo[d]imidazol-2(3H)-ylidene)-3-(trifluoromethyl)benzamide] | > 1000 nM | 100 to 1000 nM |
| CCC(CCO)n1/c(=N/C(=O)c2cccc(C(F)F)c2)[nH]c2cc(N3CCOCC3=O)ccc21 (racemic) [Compound 125, rac-(E)-3-(difluoromethyl)-N-(1-(1-hydroxypentan-3-yl)-5-(3-oxomorpholino)-1H-benzo[d]imidazol-2(3H)-ylidene)benzamide] | > 1000 nM | ≤ 100 nM |
| O=C(/N=c1\[nH]c2cc(N3CCCOC3=O)ccc2n1[C@@H]1C[C@H]1CO)c1cccc(C(F)(F)F)c1 (racemic) [Compound 144, rac-(E)-N-(1-((1R,2R)-2-(hydroxymethyl)cyclopropyl)-5-(2-oxo-1,3-oxazinan-3-yl)-1H-benzo[d]imidazol-2(3H)-ylidene)-3-(trifluoromethyl)benzamide] | > 1000 nM | ≤ 100 nM |
| O=C(/N=c1\[nH]c2cc(N3CCCNC3=O)ccc2n1CCCO)c1cccc(C(F)(F)F)c1 [Compound 1, (E)-N-(1-(3-hydroxypropyl)-5-(2-oxotetrahydropyrimidin-1(2H)-yl)-1H-benzo[d]imidazol-2(3H)-ylidene)-3-(trifluoromethyl)benzamide] | 100 to 1000 nM | ≤ 100 nM |
| O=C(/N=c1\[nH]c2cc(N3CCOCC3=O)ccc2n1CCCO)c1cccc(-n2cnnc2)c1 [Compound 2, (E)-N-(1-(3-hydroxypropyl)-5-(3-oxomorpholino)-1H-benzo[d]imidazol-2(3H)-ylidene)-3-(4H-1,2,4-triazol-4-yl)benzamide] | 100 to 1000 nM | 100 to 1000 nM |
| N#Cc1cccc(C(=O)/N=c2\[nH]c3cc(N4CCOCC4=O)ccc3n2CCCO)c1 [Compound 3, (E)-3-cyano-N-(1-(3-hydroxypropyl)-5-(3-oxomorpholino)-1H-benzo[d]imidazol-2(3H)-ylidene)benzamide] | 100 to 1000 nM | ≤ 100 nM |
| O=C(/N=c1\[nH]c2cc(N3CCOCC3=O)ccc2n1CCCO)c1cccc(C(F)(F)F)c1F [Compound 4, (E)-2-fluoro-N-(1-(3-hydroxypropyl)-5-(3-oxomorpholino)-1H-benzo[d]imidazol-2(3H)-ylidene)-3-(trifluoromethyl)benzamide] | 100 to 1000 nM | ≤ 100 nM |
| O=C(/N=c1\[nH]c2cc(N3CCOCC3=O)ccc2n1CCCO)c1ccc(F)c(C(F)(F)F)c1 [Compound 5, (E)-4-fluoro-N-(1-(3-hydroxypropyl)-5-(3-oxomorpholino)-1H-benzo[d]imidazol-2(3H)-ylidene)-3-(trifluoromethyl)benzamide] | ≤ 100 nM | ≤ 100 nM |
| O=C(/N=c1\[nH]c2cc(N3CCOCC3=O)ccc2n1CCCO)c1cccc(OC(F)F)c1 [Compound 6, (E)-3-(difluoromethoxy)-N-(1-(3-hydroxypropyl)-5-(3-oxomorpholino)-1H-benzo[d]imidazol-2(3H)-ylidene)benzamide] | 100 to 1000 nM | ≤ 100 nM |
| O=C(/N=c1\[nH]c2cc(N3CCOCC3=O)ccc2n1CCCO)c1cccc(OC(F)(F)F)c1 [Compound 7, (E)-N-(1-(3-hydroxypropyl)-5-(3-oxomorpholino)-1H-benzo[d]imidazol-2(3H)-ylidene)-3-(trifluoromethoxy)benzamide] | 100 to 1000 nM | ≤ 100 nM |
| O=C(/N=c1\[nH]c2cc(N3CCOC3=O)ccc2n1CCCO)c1cccc(C(F)(F)F)c1 [Compound 8, (E)-N-(1-(3-hydroxypropyl)-5-(2-oxooxazolidin-3-yl)-1H-benzo[d]imidazol-2(3H)-ylidene)-3-(trifluoromethyl)benzamide] | 100 to 1000 nM | ≤ 100 nM |
| O=C(/N=c1\[nH]c2cc(N3CCOCC3=O)ccc2n1CC1(CO)CC1)c1cccc(C(F)(F)F)c1 [Compound 9, (E)-N-(1-((1-(hydroxymethyl)cyclopropyl)methyl)-5-(3-oxomorpholino)-1H-benzo[d]imidazol-2(3H)-ylidene)-3-(trifluoromethyl)benzamide] | 100 to 1000 nM | ≤ 100 nM |
| C[C@H](CCO)n1/c(=N/C(=O)c2cccc(C#N)c2)[nH]c2cc(N3CCOCC3=O)ccc21 [Compound 10, (R,E)-3-cyano-N-(1-(4-hydroxybutan-2-yl)-5-(3-oxomorpholino)-1H-benzo[d]imidazol-2(3H)-ylidene)benzamide] | 100 to 1000 nM | ≤ 100 nM |
| N#Cc1cccc(C(=O)/N=c2\[nH]c3cc(N4CCOC4=O)ccc3n2CCCO)c1 [Compound 11, (E)-3-cyano-N-(1-(3-hydroxypropyl)-5-(2-oxooxazolidin-3-yl)-1H-benzo[d]imidazol-2(3H)-ylidene)benzamide] | 100 to 1000 nM | ≤ 100 nM |
| N#Cc1cccc(C(=O)/N=c2\[nH]c3cc(N4CCOCC4=O)ccc3n2CC2(CO)CC2)c1 [Compound 12, (E)-3-cyano-N-(1-((1-(hydroxymethyl)cyclopropyl)methyl)-5-(3-oxomorpholino)-1H-benzo[d]imidazol-2(3H)-ylidene)benzamide] | ≤ 100 nM | ≤ 100 nM |
| CS(=O)(=O)c1cccc(C(=O)/N=c2\[nH]c3cc(N4CCOCC4=O)ccc3n2CC2(CO)CC2)c1 [Compound 13, (E)-N-(1-((1-(hydroxymethyl)cyclopropyl)methyl)-5-(3-oxomorpholino)-1H-benzo[d]imidazol-2(3H)-ylidene)-3-(methylsulfonyl)benzamide] | ≤ 100 nM | ≤ 100 nM |
| O=C(/N=c1\[nH]c2cc(N3CCOCC3=O)ccc2n1CC1(CO)CC1)c1cccc(C(F)F)c1 [Compound 14, (E)-3-(difluoromethyl)-N-(1-((1-(hydroxymethyl)cyclopropyl)methyl)-5-(3-oxomorpholino)-1H-benzo[d]imidazol-2(3H)-ylidene)benzamide] | ≤ 100 nM | ≤ 100 nM |
